In patent EP1586565A1, “Substituted polycyclic aryl and heteroaryl pyrazinones useful for selective inhibition of the coagulation cascade” (Pharmacia Corporation, priority 1999, dated 2000):

Molecular target: T1, Human factor Xa (Homo sapiens, UniProt P00742)
T1 construct: leads from XII to XIIa to XIa to IXa and to the conversion of X to Xa; purchased Enzyme Research Laboratories, South Bend IN
Assay: Xa Assay
Assay type: biochemical
Settings: % inhibition at 30 µM (cells with % or %@30, bare 0)

T1 sequence (P00742 235-488 limits assumed): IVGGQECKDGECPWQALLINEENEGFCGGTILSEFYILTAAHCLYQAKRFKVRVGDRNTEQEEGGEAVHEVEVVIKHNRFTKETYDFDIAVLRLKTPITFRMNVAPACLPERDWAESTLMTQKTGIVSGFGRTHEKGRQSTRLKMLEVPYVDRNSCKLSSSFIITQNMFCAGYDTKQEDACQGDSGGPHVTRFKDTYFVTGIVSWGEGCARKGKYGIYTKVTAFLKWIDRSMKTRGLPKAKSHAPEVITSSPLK
T1 sequence (P00742 41-179 limits assumed): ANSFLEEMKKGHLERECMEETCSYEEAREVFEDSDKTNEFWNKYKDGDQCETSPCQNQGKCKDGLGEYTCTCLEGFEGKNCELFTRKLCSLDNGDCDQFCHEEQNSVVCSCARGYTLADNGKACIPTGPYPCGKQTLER

Structure (SMILES)	IC50 or % Inhibition Factor Xa (30 µM) [%]
N=C(N)c1ccc(CNC(=O)Cn2c(-c3ccc4c(c3)OCO4)c(Cl)nc(NCc3ccncc3)c2=O)cc1 [1471-43]	18
N=C(N)c1ccc(CNC(=O)Cn2c(-c3ccc4c(c3)OCO4)c(Cl)nc(NCCc3ccncc3)c2=O)cc1 [1471-45]	24
N=C(N)c1ccc(CNC(=O)Cn2c(-c3ccc4c(c3)OCO4)c(Cl)nc(NCCc3cccc(Cl)c3)c2=O)cc1 [1471-46]	21
N=C(N)c1ccc(CNC(=O)Cn2c(-c3ccc4c(c3)OCO4)c(Cl)nc(NCCc3ccccc3)c2=O)cc1 [1471-47]	22
N=C(N)c1ccc(CNC(=O)Cn2c(-c3ccc4c(c3)OCO4)c(Cl)nc(NCCc3cccnc3)c2=O)cc1 [1471-48]	17
CCc1c(Cl)nc(NCCc2ccc(Cl)cc2)c(=O)n1CC(=O)NCc1ccc(C(=N)N)cc1 [1471-58]	0
CCc1c(Cl)nc(NCc2ccncc2)c(=O)n1CC(=O)NCc1ccc(C(=N)N)cc1 [1471-59]	0
CCc1c(Cl)nc(NCCN2CCOCC2)c(=O)n1CC(=O)NCc1ccc(C(=N)N)cc1 [1471-60]	0
CCc1c(Cl)nc(NCCc2ccncc2)c(=O)n1CC(=O)NCc1ccc(C(=N)N)cc1 [1471-61]	0
CCc1c(Cl)nc(NCCc2ccccc2)c(=O)n1CC(=O)NCc1ccc(C(=N)N)cc1 [1471-63]	2
CCc1c(Cl)nc(NCCc2cccnc2)c(=O)n1CC(=O)NCc1ccc(C(=N)N)cc1 [1471-64]	2
N=C(N)c1ccc(CNC(=O)Cn2c(-c3ccccc3)c(Cl)nc(NCc3ccccc3Cl)c2=O)cc1 [1507-03]	21
N=C(N)c1ccc(CNC(=O)Cn2c(-c3ccccc3)c(Cl)nc(NCCCn3ccnc3)c2=O)cc1 [1507-05]	10
N=C(N)c1ccc(CNC(=O)Cn2c(-c3ccccc3)c(Cl)nc(NCC(c3ccccc3)c3ccccc3)c2=O)cc1 [1507-09]	13
N=C(N)c1ccc(CNC(=O)Cn2c(-c3ccccc3)c(Cl)nc(NC(c3ccccc3)c3ccccc3)c2=O)cc1 [1507-35]	28
N=C(N)c1ccc(CNC(=O)Cn2c(-c3ccccc3)c(Cl)nc(NCc3cc(C(F)(F)F)cc(C(F)(F)F)c3)c2=O)cc1 [1507-40]	11
N=C(N)c1ccc(CNC(=O)Cn2c(-c3ccccc3)c(Cl)nc(NCCCCc3ccccc3)c2=O)cc1 [1507-43]	21

Structure (SMILES)	IC50 or % Inhibition Factor Xa (30 µM) [%]
N=C(N)c1ccc(CNC(=O)Cn2c(-c3ccccc3)c(Cl)nc(NCCc3ccc(Cl)c(Cl)c3)c2=O)cc1 [1507-44]	9
N=C(N)c1ccc(CNC(=O)Cn2c(-c3ccccc3)c(Cl)nc(NCc3ccc(Cl)cc3)c2=O)cc1 [1507-46]	8
N=C(N)c1ccc(CNC(=O)Cn2c(-c3ccccc3)c(Cl)nc(NCC3COc4ccccc4O3)c2=O)cc1 (stereo not drawn) [1512-01]	4
COc1cccc(CNc2nc(Cl)c(-c3ccccc3)n(CC(=O)NCc3ccc(C(=N)N)cc3)c2=O)c1OC [1512-02]	3
COc1ccc(CCNc2nc(Cl)c(-c3ccccc3)n(CC(=O)NCc3ccc(C(=N)N)cc3)c2=O)cc1OC [1512-05]	10
N=C(N)c1ccc(CNC(=O)Cn2c(-c3ccccc3)c(Cl)nc(NCCCc3ccccc3)c2=O)cc1 [1512-06]	4
CCOc1ccccc1CNc1nc(Cl)c(-c2ccccc2)n(CC(=O)NCc2ccc(C(=N)N)cc2)c1=O [1512-11]	5
N=C(N)c1ccc(CNC(=O)Cn2c(-c3ccccc3)c(Cl)nc(NCc3ccc(C(F)(F)F)cc3F)c2=O)cc1 [1512-26]	5
N=C(N)c1ccc(CNC(=O)Cn2c(-c3ccccc3)c(Cl)nc(NCc3cc(C(F)(F)F)ccc3F)c2=O)cc1 [1512-27]	3
N=C(N)c1ccc(CNC(=O)Cn2c(-c3ccccc3)c(Cl)nc(NCc3cc(F)c(F)c(F)c3)c2=O)cc1 [1512-32]	5
N=C(N)c1ccc(CNC(=O)Cn2c(-c3ccccc3)c(Cl)nc(NCc3cc(Cl)ccc3Cl)c2=O)cc1 [1512-35]	4
N=C(N)c1ccc(CNC(=O)Cn2c(-c3ccccc3)c(Cl)nc(NCc3cc(F)ccc3F)c2=O)cc1 [1512-36]	9
N=C(N)c1ccc(CNC(=O)Cn2c(-c3ccccc3)c(Cl)nc(NCc3cc(F)cc(F)c3)c2=O)cc1 [1512-39]	4
N=C(N)c1ccc(CNC(=O)Cn2c(-c3ccccc3)c(Cl)nc(NCCc3cccc(C(F)(F)F)c3)c2=O)cc1 [1512-41]	4
N=C(N)c1ccc(CNC(=O)Cn2c(-c3ccccc3)c(Cl)nc(NCc3ccccc3OC(F)(F)F)c2=O)cc1 [1512-42]	1
N=C(N)c1ccc(CNC(=O)Cn2c(-c3ccccc3)c(Cl)nc(NCc3c(F)cccc3F)c2=O)cc1 [1512-43]	9

Further lines, results first:

IC50 or % Inhibition Factor Xa (30 µM) [%]	Structure (SMILES)
9	N=C(N)c1ccc(CNC(=O)Cn2c(-c3ccccc3)c(Cl)nc(NC3CCc4ccccc43)c2=O)cc1 (stereo not drawn) [1507-02]
18	N=C(N)c1ccc(CNC(=O)Cn2c(-c3ccccc3)c(Cl)nc(NC3CCCc4ccccc43)c2=O)cc1 (stereo not drawn) [1507-16]
16	N=C(N)c1ccc(CNC(=O)Cn2c(-c3ccccc3)c(Cl)nc(NCCC3=CCCCC3)c2=O)cc1 [1507-17]
4	N=C(N)c1ccc(CNC(=O)Cn2c(-c3ccccc3)c(Cl)nc(NCCCN3CCCC3=O)c2=O)cc1 [1507-19]
23	N=C(N)c1ccc(CNC(=O)Cn2c(-c3ccccc3)c(Cl)nc(NC3CCC3)c2=O)cc1 [1507-21]
4	N=C(N)c1ccc(CNC(=O)Cn2c(-c3ccccc3)c(Cl)nc(NC3CCCCCC3)c2=O)cc1 [1507-29]
0	N=C(N)c1ccc(CNC(=O)Cn2c(-c3ccccc3)c(Cl)nc(NC3CCS(=O)(=O)C3)c2=O)cc1 (stereo not drawn) [1507-36]
19	CN(C)CCCNc1nc(Cl)c(-c2ccccc2)n(CC(=O)NCc2ccc(C(=N)N)cc2)c1=O [1507-47]
5	CCCCC(CC)Nc1nc(Cl)c(-c2ccccc2)n(CC(=O)NCc2ccc(C(=N)N)cc2)c1=O (stereo not drawn) [1512-12]
7	CCCCNc1nc(Cl)c(-c2ccccc2)n(CC(=O)NCc2ccc(C(=N)N)cc2)c1=O [1512-14]
6	CN(C)CCNc1nc(Cl)c(-c2ccccc2)n(CC(=O)NCc2ccc(C(=N)N)cc2)c1=O [1512-15]
10	N=C(N)c1ccc(CNC(=O)Cn2c(-c3ccccc3)c(Cl)nc(NC3CCCCCC3)c2=O)cc1 [1512-16]
3	N=C(N)c1ccc(CNC(=O)Cn2c(-c3ccccc3)c(Cl)nc(NC3CCS(=O)(=O)C3)c2=O)cc1 (stereo not drawn) [1512-19]
6	CC1CCCC(Nc2nc(Cl)c(-c3ccccc3)n(CC(=O)NCc3ccc(C(=N)N)cc3)c2=O)C1C (stereo not drawn) [1512-23]
10	CN1CCCC1CCNc1nc(Cl)c(-c2ccccc2)n(CC(=O)NCc2ccc(C(=N)N)cc2)c1=O (stereo not drawn) [1512-46]
